Source: patent publication US8017612B2, “Piperazine compound and use thereof as a HCV polymerase inhibitor” (priority 2006, dated 2011)
Structures can show the parent of a compound that is named as a salt.

Assays:
[1] = molecular target: T1, HCV polymerase (NS5B) type 1b (Hepatitis C virus genotype 1b, UniProt P26663); assay: Assay of enzyme (HCV polymerase) inhibitory activity, type 1b enzyme; format: biochemical, HCV BK strain (type 1b); conditions: HCV polymerase inhibitory activity (IC50), 1b, type 1b enzyme 0.5 μg/ml, 25° C., 60 min
T1 construct: a region encoding NS5B (J Virol 1991 March, 65(3), 1105-13, 544 amino acids after deletion of 47 amino acids on the C-terminal); 6xHis (C); made in house; host or cells: Escherichia coli
How it was run: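 Rxn: NS5B 1b (BK, ΔC47, His6) 0.5 μg/ml; substrate RNA 5 μg/ml; ATP/GTP/CTP 50 μM, UTP 2 μM + [5,6-3H]UTP; 20 mM Tris pH 7.5, 5 mM MgCl2, 50 mM NaCl, 1 mM EDTA/DTT. 25 °C, 60 min. Stop with TCA/pyrophosphate, filter, scintillation count; IC50 vs. untreated.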

[2] = molecular target: T2, HCV polymerase (NS5B) type 1a (Hepatitis C virus genotype 1a, UniProt P26664); assay: Assay of enzyme (HCV polymerase) inhibitory activity, type 1a enzyme; format: biochemical, HCV type 1a (cloned from the blood of patients); conditions: HCV polymerase inhibitory activity (IC50), 1a, type 1a enzyme 1.5 μg/ml, 25° C., 60 min
T2 construct: made in house; host or cells: Escherichia coli (by the 'similar method' of the 1b enzyme)
How it was run: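 NS5B Δ47 C-term His6 (type 1a, 1.5 μg/ml); substrate RNA 5 μg/ml; ATP/GTP/CTP 50 μM, UTP 2 μM + [5,6-3H]UTP; Tris pH 7.5, MgCl2 5 mM; 25° C, 60 min. TCA/pyrophosphate stop, GF/B filter, scintillation. IC50 vs no-compound control.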

Compound: CC(=O)N1CCN(S(=O)(=O)c2ccc(OC(F)(F)F)c(C(=O)O)c2)[C@@H](C(=O)NCc2ccc(C(C)C)cc2)C1 [Example 305, 5-[(R)-4-acetyl-2-(4-isopropyl-benzylcarbamoyl)-piperazine-1-sulfonyl]-2-trifluoromethoxy-benzoic acid]
- IC50 [1]: < 100 nM
- IC50 [2]: 100 to 1000 nM

Compound: CC(=O)N1CCN(S(=O)(=O)c2ccc3c(c2)OC(F)(F)C(F)(F)O3)[C@@H](C(=O)NCc2ccc(C(C)C)cc2)C1 [Example 306, (R)-4-acetyl-1-(2,2,3,3-tetrafluoro-2,3-dihydro-benzo[1,4]dioxine-6-sulfonyl)-piperazine-2-carboxylic acid 4-isopropyl-benzylamide]
- IC50 [1]: 100 to 1000 nM
- IC50 [2]: 100 to 1000 nM

Compound: CC(=O)N1CCN(S(=O)(=O)c2ccc3c(c2)N(C)CCC3)[C@@H](C(=O)NCc2ccc(C(C)C)cc2)C1 [Example 307, (R)-4-acetyl-1-(1-methyl-1,2,3,4-tetrahydro-quinoline-7-sulfonyl)-piperazine-2-carboxylic acid 4-isopropyl-benzylamide]
- IC50 [1]: < 100 nM
- IC50 [2]: 100 to 1000 nM

Compound: CC(C)c1ccc(CNC(=O)[C@H]2CN(C(=O)C(N)=O)CCN2S(=O)(=O)c2ccc(C(F)(F)F)cc2)cc1 [Example 308, (R)-4-aminooxalyl-1-(4-trifluoromethyl-benzenesulfonyl)-piperazine-2-carboxylic acid 4-isopropyl-benzylamide]
- IC50 [1]: > 1000 nM
- IC50 [2]: > 1000 nM

Compound: CCOC(=O)Cc1nnn(CC(=O)N2CCN(S(=O)(=O)c3ccc(C(F)(F)F)cc3)[C@@H](C(=O)NCc3ccc(C(C)C)cc3)C2)n1 [Example 309, (2-{2-[(R)-3-(4-isopropyl-benzylcarbamoyl)-4-(4-trifluoromethyl-benzenesulfonyl)-piperazin-1-yl]-2-oxo-ethyl}-2H-tetrazol-5-yl)-acetic acid ethyl ester]
- IC50 [1]: < 100 nM
- IC50 [2]: < 100 nM

Compound: CC(C)c1ccc(CNC(=O)[C@H]2CN(C(=O)Cn3nnc(CC(=O)O)n3)CCN2S(=O)(=O)c2ccc(C(F)(F)F)cc2)cc1 [Example 310, (2-{2-[(R)-3-(4-isopropyl-benzylcarbamoyl)-4-(4-trifluoromethyl-benzenesulfonyl)-piperazin-1-yl]-2-oxo-ethyl}-2H-tetrazol-5-yl)-acetic acid]
- IC50 [1]: < 100 nM
- IC50 [2]: 100 to 1000 nM

Compound: CCOC(=O)Cc1nnnn1CC(=O)N1CCN(S(=O)(=O)c2ccc(C(F)(F)F)cc2)[C@@H](C(=O)NCc2ccc(C(C)C)cc2)C1 [Example 311, (1-{2-[(R)-3-(4-isopropyl-benzylcarbamoyl)-4-(4-trifluoromethyl-benzenesulfonyl)-piperazin-1-yl]-2-oxo-ethyl}-1H-tetrazol-5-yl)-acetic acid ethyl ester]
- IC50 [1]: 100 to 1000 nM
- IC50 [2]: 100 to 1000 nM

Compound: CC(C)c1ccc(CNC(=O)[C@H]2CN(C(=O)Cn3nnnc3CC(=O)O)CCN2S(=O)(=O)c2ccc(C(F)(F)F)cc2)cc1 [Example 312, (1-{2-[(R)-3-(4-isopropyl-benzylcarbamoyl)-4-(4-trifluoromethyl-benzenesulfonyl)-piperazin-1-yl]-2-oxo-ethyl}-1H-tetrazol-5-yl)-acetic acid]
- IC50 [1]: 100 to 1000 nM
- IC50 [2]: > 1000 nM

Compound: CC(C)c1ccc(CNC(=O)[C@H]2CN(C(=N)N)CCN2S(=O)(=O)c2ccc(C(F)(F)F)cc2)cc1 [Example 313, (R)-4-carbamimidoyl-1-(4-trifluoromethyl-benzenesulfonyl)-piperazine-2-carboxylic acid 4-isopropyl-benzylamide hydrochloride]
- IC50 [1]: < 100 nM
- IC50 [2]: < 100 nM

Compound: CC(C)c1ccc(CNC(=O)[C@H]2CN(C(=O)Nc3ccnc(C(=O)O)c3)CCN2S(=O)(=O)c2ccc(C(F)(F)F)cc2)cc1 [Example 314, 4-{[(R)-3-(4-isopropyl-benzylcarbamoyl)-4-(4-trifluoromethyl-benzenesulfonyl)-piperazine-1-carbonyl]-amino}-pyridine-2-carboxylic acid hydrochloride]
- IC50 [1]: 100 to 1000 nM
- IC50 [2]: 100 to 1000 nM

Compound: CC(C)c1ccc(CNC(=O)[C@H]2CN(c3ncc(C(=O)O)s3)CCN2S(=O)(=O)c2ccc(C(F)(F)F)cc2)cc1 [Example 315, 2-[(R)-3-(4-isopropyl-benzylcarbamoyl)-4-(4-trifluoromethyl-benzenesulfonyl)-piperazin-1-yl]-thiazole-5-carboxylic acid]
- IC50 [1]: < 100 nM
- IC50 [2]: 100 to 1000 nM

Compound: CCOC(=O)CCCCCC(=O)N1CCN(S(=O)(=O)c2ccc(C(F)(F)F)cc2)[C@@H](C(=O)NCc2ccc(C(C)C)cc2)C1 [Example 316, 7-[(R)-3-(4-isopropyl-benzylcarbamoyl)-4-(4-trifluoromethyl-benzenesulfonyl)-piperazin-1-yl]-7-oxo-heptanoic acid ethyl ester]
- IC50 [1]: 100 to 1000 nM
- IC50 [2]: 100 to 1000 nM

Compound: CC(C)c1ccc(CNC(=O)[C@H]2CN(C(=O)CCCCCC(=O)O)CCN2S(=O)(=O)c2ccc(C(F)(F)F)cc2)cc1 [Example 317, 7-[(R)-3-(4-isopropyl-benzylcarbamoyl)-4-(4-trifluoromethyl-benzenesulfonyl)-piperazin-1-yl]-7-oxo-heptanoic acid]
- IC50 [1]: 100 to 1000 nM
- IC50 [2]: 100 to 1000 nM

Compound: CC(C)c1ccc(CNC(=O)[C@H]2CN(C(=O)Nc3ccncc3)CCN2S(=O)(=O)c2ccc(OC(F)(F)F)cc2)cc1 [Example 318, (R)-4-(4-trifluoromethoxy-benzenesulfonyl)-piperazine-1,3-dicarboxylic acid 3-(4-isopropyl-benzylamide) 1-pyridin-4-ylamide]
- IC50 [1]: < 100 nM
- IC50 [2]: < 100 nM

Compound: CCCc1ccc(S(=O)(=O)N2CCN(c3nc(C)c(C(=O)OC(C)(C)C)s3)C[C@@H]2C(=O)NCc2ccc(C(C)C)cc2)cc1 [Example 319, 2-[(R)-3-(4-isopropyl-benzylcarbamoyl)-4-(4-propyl-benzenesulfonyl)-piperazin-1-yl]-4-methyl-thiazole-5-carboxylic acid tert-butyl ester]
- IC50 [1]: 100 to 1000 nM
- IC50 [2]: > 1000 nM

Compound: Cc1nc(N2CCN(S(=O)(=O)c3ccc(OC(F)(F)F)cc3)[C@@H](C(=O)NCc3ccc(C(C)C)cc3)C2)sc1C(=O)OC(C)(C)C [Example 320, 2-[(R)-3-(4-isopropyl-benzylcarbamoyl)-4-(4-trifluoromethoxy-benzenesulfonyl)-piperazin-1-yl]-4-methyl-thiazole-5-carboxylic acid tert-butyl ester]
- IC50 [1]: > 1000 nM
- IC50 [2]: > 1000 nM

Compound: CCc1ccc(CNC(=O)[C@H]2CN(C(C)=O)CCN2S(=O)(=O)c2ccc(C(C)C)cc2)c(C)c1 [Example 321, (R)-4-acetyl-1-(4-isopropyl-benzenesulfonyl)-piperazine-2-carboxylic acid 4-ethyl-2-methyl-benzylamide]
- IC50 [1]: < 100 nM
- IC50 [2]: < 100 nM

Compound: Cc1nc(N2CCN(S(=O)(=O)c3ccc(OC(F)(F)F)cc3)[C@@H](C(=O)NCc3ccc(C(C)C)cc3)C2)sc1C(=O)O [Example 322, 2-[(R)-3-(4-isopropyl-benzylcarbamoyl)-4-(4-trifluoromethoxy-benzenesulfonyl)-piperazin-1-yl]-4-methyl-thiazole-5-carboxylic acid]
- IC50 [1]: < 100 nM
- IC50 [2]: < 100 nM

Compound: CC(=O)N1CCN(S(=O)(=O)c2ccc(C(C)C)cc2)[C@@H](C(=O)NCc2ccc(C3CC3)cc2C)C1 [Example 323, (R)-4-acetyl-1-(4-isopropyl-benzenesulfonyl)-piperazine-2-carboxylic acid 4-cyclopropyl-2-methyl-benzylamide]
- IC50 [1]: < 100 nM
- IC50 [2]: < 100 nM

Compound: CC(=O)N1CCN(S(=O)(=O)c2ccc(OC(F)(F)F)c(CCC(=O)O)c2)[C@@H](C(=O)NCc2ccc(C(C)C)cc2)C1 [Example 324, 3-{5-[(R)-4-acetyl-2-(4-isopropyl-benzylcarbamoyl)-piperazine-1-sulfonyl]-2-trifluoromethoxy-phenyl}-propionic acid]
- IC50 [1]: 100 to 1000 nM
- IC50 [2]: < 100 nM

Compound: CCOC(=O)c1cnc(N2CCN(S(=O)(=O)c3ccc(C(F)(F)F)cc3)[C@@H](C(=O)NCc3ccc(C(C)C)cc3)C2)nc1O [Example 325, 4-hydroxy-2-[(R)-3-(4-isopropyl-benzylcarbamoyl)-4-(4-trifluoromethyl-benzenesulfonyl)-piperazin-1-yl]-pyrimidine-5-carboxylic acid ethyl ester]
- IC50 [1]: 100 to 1000 nM
- IC50 [2]: > 1000 nM

Compound: CC(C)c1ccc(CNC(=O)[C@H]2CN(c3ccc(C(=O)OC(C)(C)C)cn3)CCN2S(=O)(=O)c2ccc(C(F)(F)F)cc2)cc1 [Example 326, 6-[(R)-3-(4-isopropyl-benzylcarbamoyl)-4-(4-trifluoromethyl-benzenesulfonyl)-piperazin-1-yl]-nicotinic acid tert-butyl ester]
- IC50 [1]: 100 to 1000 nM
- IC50 [2]: 100 to 1000 nM

Compound: CC(C)c1ccc(CNC(=O)[C@H]2CN(c3ccc(C(=O)O)cn3)CCN2S(=O)(=O)c2ccc(C(F)(F)F)cc2)cc1 [Example 327, 6-[(R)-3-(4-isopropyl-benzylcarbamoyl)-4-(4-trifluoromethyl-benzenesulfonyl)-piperazin-1-yl]-nicotinic acid trifluoroacetate]
- IC50 [1]: < 100 nM
- IC50 [2]: < 100 nM
